Test: Phase I trial, combination with carboplatin: adverse events and DLTs
Type: in vivo, human
Protocol: Pts with advanced solid tumors enrolled in 2 sequential parts.
In part A, single pt cohorts received a compound of Formula A-2 once weekly in 21-day cycles with 3+3 dose escalation cohorts being implemented if grade 2 drug-related adverse events (AEs) occurred. […] If a DLT was reported, the cohort was expanded to include 3 additional pts with subsequent dose escalation being permitted if no further DLTs occurred. Paired pre- and post-treatment biopsies from selected pts in part B were assessed for pCHK1 levels by immunohistochemistry. Models based on preclinical and clinical data were used to simulate hematologic toxicities and pCHK1 inhibition for pts treated with a compound of Formula A-2 and CP.

[1] = A-2 120 mg/m^2 + Carboplatin AUC4 (N = 3)
[2] = A-2 120 mg/m^2 + Carboplatin AUC5 (N = 3)
[3] = A-2 240 mg/m2 + Carboplatin AUC 5 (n = 3)
[4] = A-2 240 mg/m^2 + Carboplatin AUC5 (N = 3)
[5] = A-2 + Carboplatin, Total (N = 15)
[6] = A-2 + Carboplatin, Total (N = 19)

Compound: CNCc1ccc(-c2cc(-c3nc(-c4ccc(S(=O)(=O)C(C)C)cc4)cnc3N)on2)cc1 [Compound A-2]
- Treatment related adverse event: Vomiting, All [1]: 0
- Treatment related adverse event: Vomiting, ≥3 [1]: 0
- Treatment related adverse event: Alopecia, All [2]: 0
- Treatment related adverse event: Alopecia, ≥3 [2]: 0
- Treatment related adverse event: Anemia, All [2]: 2
- Treatment related adverse event: Anemia, ≥3 [2]: 0
- Treatment related adverse event: Fatigue, All [2]: 1
- Treatment related adverse event: Fatigue, ≥3 [2]: 0
- Treatment related adverse event: Flushing, All [2]: 1
- Treatment related adverse event: Flushing, ≥3 [2]: 1
- Treatment related adverse event: Headache, All [2]: 0
- Treatment related adverse event: Headache, ≥3 [2]: 0
- Treatment related adverse event: Hypertension, All [2]: 0
- Treatment related adverse event: Hypertension, ≥3 [2]: 0
- Treatment related adverse event: Nausea, All [2]: 2
- Treatment related adverse event: Nausea, ≥3 [2]: 0
- Treatment related adverse event: Neuropathy peripheral, All [2]: 0
- Treatment related adverse event: Neuropathy peripheral, ≥3 [2]: 0
- Treatment related adverse event: Neutropenia, All [2]: 2
- Treatment related adverse event: Neutropenia, ≥3 [2]: 1
- Treatment related adverse event: Respiratory tract infection, All [2]: 0
- Treatment related adverse event: Respiratory tract infection, ≥3 [2]: 0
- Treatment related adverse event: Thrombocytopenia, All [2]: 1
- Treatment related adverse event: Thrombocytopenia, ≥3 [2]: 0
- Treatment related adverse event: Vomiting, All [2]: 0
- Treatment related adverse event: Vomiting, ≥3 [2]: 0
- Treatment related adverse event: Alopecia, All Grades [3]: 0 n (%)
- Treatment related adverse event: Alopecia, Grade ≥ 3 [3]: 0 n (%)
- Treatment related adverse event: Anemia, All Grades [3]: 3 (100) n (%)
- Treatment related adverse event: Anemia, Grade ≥ 3 [3]: 0 n (%)
- Treatment related adverse event: Any Event, All Grades [3]: 3 (100) n (%)
- Treatment related adverse event: Fatigue, Grade ≥ 3 [3]: 0 n (%)
- Treatment related adverse event: Flushing, All Grades [3]: 1 (33.3) n (%)
- Treatment related adverse event: Flushing, Grade ≥ 3 [3]: 0 n (%)
- Treatment related adverse event: Headache, Grade ≥ 3 [3]: 0 n (%)
- Treatment related adverse event: Hypersensitivity, All Grades [3]: 1 (33.3) n (%)
- Treatment related adverse event: Hypersensitivity, Grade ≥ 3 [3]: 0 n (%)
- Treatment related adverse event: Infusion related reaction, All Grades [3]: 0 n (%)
- Treatment related adverse event: Infusion related reaction, Grade ≥ 3 [3]: 0 n (%)
- Treatment related adverse event: Nausea, All Grades [3]: 3 (100) n (%)
- Treatment related adverse event: Nausea, Grade ≥ 3 [3]: 0 n (%)
- Treatment related adverse event: Neuropathy peripheral, Grade ≥ 3 [3]: 0 n (%)
- Treatment related adverse event: Neutropenia, All Grades [3]: 3 (100) n (%)
- Treatment related adverse event: Pruritus, All Grades [3]: 1 (33.3) n (%)
- Treatment related adverse event: Pruritus, Grade ≥ 3 [3]: 0 n (%)
- Treatment related adverse event: Thrombocytopenia, All Grades [3]: 3 (100) n (%)
- Treatment related adverse event: Thrombocytopenia, Grade ≥ 3 [3]: 1 (33.3) n (%)
- Treatment related adverse event: Vomiting, Grade ≥ 3 [3]: 0 n (%)
- Treatment related adverse event: Alopecia, All [4]: 0
- Treatment related adverse event: Alopecia, ≥3 [4]: 0
- Treatment related adverse event: Anemia, All [4]: 3
- Treatment related adverse event: Anemia, ≥3 [4]: 0
- Treatment related adverse event: Fatigue, All [4]: 2
- Treatment related adverse event: Fatigue, ≥3 [4]: 0
- Treatment related adverse event: Flushing, All [4]: 1
- Treatment related adverse event: Flushing, ≥3 [4]: 0
- Treatment related adverse event: Headache, All [4]: 2
- Treatment related adverse event: Headache, ≥3 [4]: 0
- Treatment related adverse event: Hypertension, All [4]: 1
- Treatment related adverse event: Hypertension, ≥3 [4]: 1
- Treatment related adverse event: Nausea, All [4]: 3
- Treatment related adverse event: Nausea, ≥3 [4]: 0
- Treatment related adverse event: Neuropathy peripheral, All [4]: 2
- Treatment related adverse event: Neuropathy peripheral, ≥3 [4]: 0
- Treatment related adverse event: Neutropenia, All [4]: 3
- Treatment related adverse event: Neutropenia, ≥3 [4]: 2
- Treatment related adverse event: Respiratory tract infection, All [4]: 1
- Treatment related adverse event: Respiratory tract infection, ≥3 [4]: 1
- Treatment related adverse event: Thrombocytopenia, All [4]: 3
- Treatment related adverse event: Thrombocytopenia, ≥3 [4]: 1
- Treatment related adverse event: Vomiting, All [4]: 2
- Treatment related adverse event: Vomiting, ≥3 [4]: 0
- Treatment related adverse event: Alopecia, All [5]: 2
- Treatment related adverse event: Alopecia, ≥3 [5]: 0
- Treatment related adverse event: Anemia, All [5]: 9
- Treatment related adverse event: Anemia, ≥3 [5]: 0
- Treatment related adverse event: Fatigue, All [5]: 6
- Treatment related adverse event: Fatigue, ≥3 [5]: 0
- Treatment related adverse event: Flushing, All [5]: 3
- Treatment related adverse event: Flushing, ≥3 [5]: 1
- Treatment related adverse event: Headache, All [5]: 2
- Treatment related adverse event: Headache, ≥3 [5]: 0
- Treatment related adverse event: Hypertension, All [5]: 1
- Treatment related adverse event: Hypertension, ≥3 [5]: 1
- Treatment related adverse event: Nausea, All [5]: 7
- Treatment related adverse event: Nausea, ≥3 [5]: 0
- Treatment related adverse event: Neuropathy peripheral, All [5]: 2
- Treatment related adverse event: Neuropathy peripheral, ≥3 [5]: 0
- Treatment related adverse event: Neutropenia, All [5]: 7
- Treatment related adverse event: Neutropenia, ≥3 [5]: 4
- Treatment related adverse event: Respiratory tract infection, All [5]: 1
- Treatment related adverse event: Respiratory tract infection, ≥3 [5]: 1
- Treatment related adverse event: Thrombocytopenia, All [5]: 7
- Treatment related adverse event: Thrombocytopenia, ≥3 [5]: 1
- Treatment related adverse event: Vomiting, All [5]: 2
- Treatment related adverse event: Vomiting, ≥3 [5]: 0
- Treatment related adverse event: Alopecia, Grade ≥ 3 [6]: 0 n (%)
- Treatment related adverse event: Anemia, Grade ≥ 3 [6]: 0 n (%)
- Treatment related adverse event: Any Event, Grade ≥ 3 [6]: 5 (26.3) n (%)
- Treatment related adverse event: Fatigue, Grade ≥ 3 [6]: 0 n (%)
- Treatment related adverse event: Flushing, Grade ≥ 3 [6]: 0 n (%)
- Treatment related adverse event: Headache, Grade ≥ 3 [6]: 0 n (%)
- Treatment related adverse event: Hypersensitivity, Grade ≥ 3 [6]: 1 (5.3) n (%)
- Treatment related adverse event: Infusion related reaction, Grade ≥ 3 [6]: 0 n (%)
- Treatment related adverse event: Nausea, Grade ≥ 3 [6]: 0 n (%)
- Treatment related adverse event: Neuropathy peripheral, Grade ≥ 3 [6]: 0 n (%)
- Treatment related adverse event: Neutropenia, All Grades [6]: 8 (42.1) n (%)
- Treatment related adverse event: Neutropenia, Grade ≥ 3 [6]: 4 (21.1) n (%)
- Treatment related adverse event: Pruritus, Grade ≥ 3 [6]: 0 n (%)
- Treatment related adverse event: Thrombocytopenia, Grade ≥ 3 [6]: 1 (5.3) n (%)
- Treatment related adverse event: Vomiting, Grade ≥ 3 [6]: 0 n (%)
- DLTs (Cohort 1: A-2 240 mg/m^2 + Carboplatin AUC 5 mg/mL·min, 3/3 evaluable, febrile neutropenia): 1 (febrile
- DLTs (Cohort 2: A-2 120 mg/m^2 + Carboplatin AUC 5 mg/mL·min, 3/3 evaluable, acute hypersensitivity): 1 (acute
- DLTs (Cohort 3: A-2 120 mg/m^2 + Carboplatin AUC 4 mg/mL·min, 3/3 evaluable): 0
- DLTs (Cohort 4: A-2 90 mg/m^2 + Carboplatin AUC 5 mg/mL·min, 10/10 evaluable, febrile neutropenia): 1 (febrile
- Non-DLT G3-4 AE: neutropenia (DL1-2): 4
- DLT: G4 neutropenia and fever (DL1: Compound A-2 240 mg/m^2 + CP AUC 5 mg/mL·min (n=3)): 1
- Non-DLT G3-4 AE: thrombocytopenia (DL2): 1
- DLT: G3 hypersensitivity (DL2: Compound A-2 120 mg/m^2 + CP AUC 5 mg/mL·min (n=3)): 1
- G3-4 AEs (DL3-4 (120 mg/m^2 + CP AUC 4; 90 mg/m^2 + CP AUC 5)): No G3-4 AEs
- Pts with DLT (Part B, carboplatin day 1, Compound A-2 days 2 and 9, 14 pts): 2 pts
- Grade 3/4-related AEs (part B across the various DLs): 5 pts
- DLT: grade 3 hypersensitivity (part B, dosage level B2): 1 pt
- DLT: grade 3/4 neutropenia (part B, dosage levels B1 and B2): 2 pts

Source: patent US20230106592A1, “METHOD FOR TREATING CANCER USING A COMBINATION OF DNA DAMAGING AGENTS AND ATR INHIBITORS” (Vertex Pharmaceuticals Incorporated, priority 2015, published 2023)
